How the values were obtained:
[1] = system: bedstraw; experiment: Test B pre/postemergence bedstraw; type: in vivo, Galium aparine
Outline: (§1)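 Herbicidal effect was estimated by eye on a ten-point control scale after plants spent twelve to sixteen days in a greenhouse following soil or foliar treatment. Foliar sprays targeted plants at one to four leaves; all doses were formulated in a non-phytotoxic solvent with surfactant.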

[2] = system: blackgrass; experiment: Test B pre/postemergence blackgrass; type: in vivo, Alopecurus myosuroides
Outline: as §1

[3] = system: surinam grass; experiment: Test B pre/postemergence surinam grass; type: in vivo, Brachiaria decumbens
Outline: as §1

[4] = system: cocklebur; experiment: Test B pre/postemergence cocklebur; type: in vivo, Xanthium strumarium
Outline: as §1

[5] = system: corn; experiment: Test B pre/postemergence corn; type: in vivo, Zea mays
Outline: as §1

[6] = system: crabgrass; experiment: Test B pre/postemergence crabgrass; type: in vivo, Digitaria sanguinalis
Outline: as §1

[7] = system: giant foxtail; experiment: Test B pre/postemergence giant foxtail; type: in vivo, Setaria faberii
Outline: as §1

[8] = system: morningglory; experiment: Test B pre/postemergence morningglory; type: in vivo, Ipomoea hederacea
Outline: as §1

[9] = system: pigweed; experiment: Test B pre/postemergence pigweed; type: in vivo, Amaranthus retroflexus
Outline: as §1

[10] = system: rape; experiment: Test B pre/postemergence rape; type: in vivo, Brassica napus
Outline: as §1

[11] = system: soybean; experiment: Test B pre/postemergence soybean; type: in vivo, Glycine max
Outline: as §1

[12] = system: sugar beet; experiment: Test B pre/postemergence sugar beet; type: in vivo, Beta vulgaris
Outline: as §1

[13] = system: velvetleaf; experiment: Test B pre/postemergence velvetleaf; type: in vivo, Abutilon theophrasti
Outline: as §1

[14] = system: wheat; experiment: Test B pre/postemergence wheat; type: in vivo, Triticum aestivum
Outline: as §1

[15] = system: wild oat; experiment: Test B pre/postemergence wild oat; type: in vivo, Avena fatua
Outline: as §1

[16] = system: purple nutsedge; experiment: Test B pre/postemergence purple nutsedge; type: in vivo, Cyperus rotundus
Outline: as §1

[17] = Postemergence, Rate 62 g/ha, scale of 0 to 10, 0 is no effect, 10 is complete control
[18] = Postemergence, Rate 125 g/ha, scale 0 to 10, 0 is no effect, 10 is complete control
[19] = Postemergence, Rate 500 g/ha, scale 0 to 10, 0 is no effect, 10 is complete control
[20] = Preemergence, Rate 62 g/ha, scale 0 to 10 (0 no effect, 10 complete control)
[21] = Preemergence, Rate 125 g/ha, scale 0 to 10, 0 is no effect, 10 is complete control
[22] = Preemergence, Rate 500 g/ha, scale of 0 to 10 where 0 is no effect and 10 is complete control
[23] = Rate 250 g/ha, Postemergence, scale of 0 to 10 where 0 is no effect and 10 is complete control

CC(Cl)=CCn1c(=O)on(C(=O)N(c2ccc(Cl)cc2)C(C)C)c1=O [Compound 544]
Bedstraw plant response rating [1, 17]: 0
Bedstraw plant response rating [1, 18]: 2
Plant response rating, Bedstraw [1, 19]: 3
Bedstraw plant response rating [1, 20]: 0
Bedstraw plant response rating [1, 21]: 2
Bedstraw plant response rating (0 to 10 scale) ([1]; Preemergence, Rate 250 g/ha): 7
Bedstraw plant response rating [1, 22]: 9
Plant response rating, Bedstraw [1, 23]: 2
Blackgrass plant response rating [2, 17]: 0
Blackgrass plant response rating [2, 18]: 0
Plant response rating, Blackgrass [2, 19]: 3
Blackgrass plant response rating [2, 20]: 0
Blackgrass plant response rating [2, 21]: 0
Blackgrass plant response rating (0 to 10 scale) ([2]; Preemergence, Rate 250 g/ha): 2
Blackgrass plant response rating [2, 22]: 6
Plant response rating, Blackgrass [2, 23]: 0
B. signalgrass plant response rating [3, 17]: 0
B. signalgrass plant response rating [3, 18]: 0
Plant response rating, B. signalgrass [3, 19]: 3
B. signalgrass plant response rating [3, 20]: 3
B. signalgrass plant response rating [3, 21]: 3
B. signalgrass plant response rating (0 to 10 scale, 0 is no effect, 10 is complete control) ([3]; Preemergence, Rate 250 g/ha): 6
B. signalgrass plant response rating [3, 22]: 8
Plant response rating, B. signalgrass [3, 23]: 0
Cocklebur plant response rating [4, 17]: 3
Cocklebur plant response rating [4, 18]: 3
Plant response rating, Cocklebur [4, 19]: 3
Cocklebur plant response rating [4, 20]: 0
Cocklebur plant response rating (0 to 10 scale) ([4]; Preemergence, Rate 250 g/ha): 0
Cocklebur plant response rating [4, 22]: 0
Plant response rating, Cocklebur [4, 23]: 3
Corn plant response rating [5, 17]: 0
Corn plant response rating [5, 18]: 0
Plant response rating, Corn [5, 19]: 0
Corn plant response rating [5, 20]: 0
Corn plant response rating [5, 21]: 0
Corn plant response rating (0 to 10 scale) ([5]; Preemergence, Rate 250 g/ha): 0
Corn plant response rating [5, 22]: 0
Plant response rating, Corn [5, 23]: 0
Crabgrass plant response rating [6, 17]: 0
Crabgrass plant response rating [6, 18]: 8
Plant response rating, Crabgrass [6, 19]: 9
Crabgrass plant response rating [6, 20]: 9
Crabgrass plant response rating [6, 21]: 9
Crabgrass plant response rating (0 to 10 scale) ([6]; Preemergence, Rate 250 g/ha): 10
Crabgrass plant response rating [6, 22]: 10
Plant response rating, Crabgrass [6, 23]: 8
Giant foxtail plant response rating [7, 17]: 0
Giant foxtail plant response rating [7, 18]: 0
Giant foxtail plant response rating [7, 20]: 9
Giant foxtail plant response rating [7, 21]: 10
Giant foxtail plant response rating (0 to 10 scale) ([7]; Preemergence, Rate 250 g/ha): 10
Giant foxtail plant response rating [7, 22]: 10
Plant response rating, Giant foxtail [7, 23]: 6
Morningglory plant response rating [8, 17]: 3
Morningglory plant response rating [8, 18]: 4
Plant response rating, Morningglory [8, 19]: 10
Morningglory plant response rating [8, 20]: 0
Morningglory plant response rating [8, 21]: 0
Morningglory plant response rating (0 to 10 scale) ([8]; Preemergence, Rate 250 g/ha): 0
Morningglory plant response rating [8, 22]: 0
Plant response rating, Morningglory [8, 23]: 10
Redroot pigweed plant response rating [9, 17]: 0
Redroot pigweed plant response rating [9, 18]: 0
Plant response rating, Redroot pigweed [9, 19]: 2
Redroot pigweed plant response rating [9, 20]: 3
Redroot pigweed plant response rating [9, 21]: 3
Redroot pigweed plant response rating (0 to 10 scale) ([9]; Preemergence, Rate 250 g/ha): 3
Redroot pigweed plant response rating [9, 22]: 10
Plant response rating, Redroot pigweed [9, 23]: 0
Rape plant response rating [10, 17]: 0
Rape plant response rating [10, 18]: 2
Plant response rating, Rape [10, 19]: 3
Rape plant response rating [10, 20]: 0
Rape plant response rating [10, 21]: 0
Rape plant response rating (0 to 10 scale) ([10]; Preemergence, Rate 250 g/ha): 3
Rape plant response rating [10, 22]: 6
Plant response rating, Rape [10, 23]: 2
Soybean plant response rating [11, 17]: 0
Soybean plant response rating [11, 18]: 2
Plant response rating, Soybean [11, 19]: 2
Soybean plant response rating [11, 20]: 0
Soybean plant response rating [11, 21]: 0
Soybean plant response rating (0 to 10 scale) ([11]; Preemergence, Rate 250 g/ha): 0
Soybean plant response rating [11, 22]: 0
Plant response rating, Soybean [11, 23]: 0
Sugarbeets plant response rating [12, 17]: 0
Sugarbeets plant response rating [12, 18]: 0
Plant response rating, Sugarbeets [12, 19]: 3
Sugarbeets plant response rating [12, 20]: 0
Sugarbeets plant response rating [12, 21]: 0
Sugarbeets plant response rating (0 to 10 scale) ([12]; Preemergence, Rate 250 g/ha): 0
Sugarbeets plant response rating [12, 22]: 4
Plant response rating, Sugarbeets [12, 23]: 1
Velvetleaf plant response rating [13, 17]: 0
Velvetleaf plant response rating [13, 18]: 0
Plant response rating, Velvetleaf [13, 19]: 0
Velvetleaf plant response rating [13, 20]: 0
Velvetleaf plant response rating [13, 21]: 0
Velvetleaf plant response rating (0 to 10 scale) ([13]; Preemergence, Rate 250 g/ha): 0
Velvetleaf plant response rating [13, 22]: 0
Plant response rating, Velvetleaf [13, 23]: 0
Wheat plant response rating [14, 17]: 0
Wheat plant response rating [14, 18]: 0
Plant response rating, Wheat [14, 19]: 0
Wheat plant response rating [14, 20]: 0
Wheat plant response rating [14, 21]: 0
Wheat plant response rating (0 to 10 scale) ([14]; Preemergence, Rate 250 g/ha): 0
Wheat plant response rating [14, 22]: 0
Plant response rating, Wheat [14, 23]: 0
Wild oats plant response rating [15, 17]: 0
Wild oats plant response rating [15, 18]: 0
Plant response rating, Wild oats [15, 19]: 2
Wild oats plant response rating [15, 20]: 0
Wild oats plant response rating [15, 21]: 0
Wild oats plant response rating (0 to 10 scale) ([15]; Preemergence, Rate 250 g/ha): 2
Wild oats plant response rating [15, 22]: 4
Plant response rating, Wild oats [15, 23]: 0
Nutsedge plant response rating [16, 17]: 0
Nutsedge plant response rating [16, 18]: 0
Plant response rating, Nutsedge [16, 19]: 0
Nutsedge plant response rating [16, 20]: 0
Nutsedge plant response rating [16, 21]: 0
Nutsedge plant response rating (0 to 10 scale) ([16]; Preemergence, Rate 250 g/ha): 0
Nutsedge plant response rating [16, 22]: 0
Plant response rating, Nutsedge [16, 23]: 0

— patent US6737383B1, “Herbicidal oxadiazolidines” (priority 1999, dated 2004)
